The results in this text go back to patent US12577231B2, “Androgen receptor PROTACS” (GlaxoSmithKline Intellectual Property Development Limited, priority 2023, dated 2026).

Assay [1] deals with T1, Androgen Receptor protein in human LnCaP cells (Homo sapiens, UniProt P10275, T878A).
T1 construct: the AR gene was modified, using CRISPR/Cas9 editing, so the expressed AR protein included an 11 amino acid HiBiT tag; endogenous in cells; host or cells: clonal LnCaP derived cell line, endogenous AR gene edited by CRISPR/Cas9
T1 sequence (P10275 1-920 T878A): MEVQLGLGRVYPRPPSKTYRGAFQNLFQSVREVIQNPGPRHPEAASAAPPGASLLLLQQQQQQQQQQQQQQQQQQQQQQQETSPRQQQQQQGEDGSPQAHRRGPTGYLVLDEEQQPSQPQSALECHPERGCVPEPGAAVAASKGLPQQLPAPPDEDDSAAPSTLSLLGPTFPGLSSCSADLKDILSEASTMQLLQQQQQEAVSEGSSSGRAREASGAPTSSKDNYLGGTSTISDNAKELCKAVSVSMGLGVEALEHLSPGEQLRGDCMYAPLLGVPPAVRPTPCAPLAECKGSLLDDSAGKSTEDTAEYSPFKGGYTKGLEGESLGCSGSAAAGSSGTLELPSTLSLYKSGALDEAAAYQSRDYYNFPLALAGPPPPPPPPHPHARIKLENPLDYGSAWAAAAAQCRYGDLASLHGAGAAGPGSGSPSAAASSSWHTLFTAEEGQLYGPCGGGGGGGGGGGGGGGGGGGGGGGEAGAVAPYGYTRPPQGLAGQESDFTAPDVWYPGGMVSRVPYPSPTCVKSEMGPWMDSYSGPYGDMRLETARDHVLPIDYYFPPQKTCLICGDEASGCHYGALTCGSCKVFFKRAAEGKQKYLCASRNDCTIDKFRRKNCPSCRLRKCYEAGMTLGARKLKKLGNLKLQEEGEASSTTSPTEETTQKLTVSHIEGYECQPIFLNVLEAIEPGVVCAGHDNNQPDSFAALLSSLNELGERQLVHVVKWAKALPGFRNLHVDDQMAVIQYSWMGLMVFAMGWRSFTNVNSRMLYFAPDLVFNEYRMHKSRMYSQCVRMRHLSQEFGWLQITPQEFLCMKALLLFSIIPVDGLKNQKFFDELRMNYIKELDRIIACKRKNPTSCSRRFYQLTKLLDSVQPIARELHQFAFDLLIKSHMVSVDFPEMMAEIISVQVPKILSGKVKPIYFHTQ
Briefly: Androgen Receptor Degradation Assay (Nano-Glo HiBiT, LnCaP cells). In kind it is cell-based. The conditions noted are these: 18 h, HiBiT-tagged AR LnCaP cells, 18 h incubation, fitted curve asymptote maximum of degradation, read-out: mean asymptote max. How it is done: Degradation of Androgen Receptor protein in human LnCaP cells treated with PROTACs was quantified using the Nano-Glo® HiBiT Lytic Detection System (Promega) in 384 well assay plate format. A clonal LnCaP derived cell line was first established in which the AR gene was modified, using CRISPR/Cas9 editing, so the expressed AR protein included an 11 amino acid HiBiT tag at its amino-terminus. 10 mM DMSO stock solutions of PROTACs were prepared and diluted across an 11 concentration, 3 fold increment range, and 25 nL dispensed into a white opaque bottomed 384 well assay plate (Thermofisher) using an acoustic ECHO dispenser (Labcyte). Cells were grown in cell culture medium (RPMI 1640 supplemented with 15% FBS, penicillin 50U/mL and streptomycin 50 ug/mL (Thermofisher)). For the assay, cells were detached from flask and resuspended with assay medium (FluoroBrite™ DMEM supplemented with 10% heat inactivated FBS, penicillin 50U/mL and streptomycin 50 ug/mL (Thermofisher)). The cell suspension was centrifuged at 400 g for 5 min and the pellet resuspended in assay medium. 25 μL of cell suspension containing 10,000 cells was dispensed into each well of the assay plate containing a serial dilution of test compounds, which was then incubated for 18 h at 37° C./5% CO2. Control wells were included on each assay plate, with assay medium without cells being the no AR remaining 100% effect control, and cells treated with DMSO vehicle only, without PROTAC, the 0% effect control. 25 μL of Nano-Glo® HiBiT lysis buffer supplemented with LgBiT protein and Nano-Glo® substrate (Promega) was added to each well and the plate shaken at 500 rpm for 10 min at room temperature. The intensity of luminescence was measured using a PHERAstar microplate reader (BMG Labtech) and the % AR protein remaining in each well calculated by normalising the raw luminescence value to the above control wells. Parameters corresponding to the potency and efficacy estimates of the PROTACs were obtained from these normalised luminescence values using software (IDBS ActivityBase). These included the DC50 (concentration at which 50% of protein was degraded in M) and the Dmax (maximal degradation, in %) estimates. Two versions of the DC50, called relative DC50 and absolute DC50, were generated. These are the inflection point of a fitted 4 parameter sigmoidal response curve and the interpolated concentration of PROTAC corresponding to 50% of the protein being degraded, respectively. The corresponding pDC50 is reported as −log10(relative […]). The Dmax parameter was the maximum experimentally observed degradation and the asymptote max parameter the fitted response curve asymptote maximum.

In assay [2] the target is T2, Androgen Receptor dual T878A/L702H mutant protein (Homo sapiens, UniProt P10275, L702H/T878A).
T2 construct: host or cells: MDA-PCa-2b
T2 sequence (P10275 1-920 L702H/T878A): T1 sequence (P10275 1-920 T878A) with L702H
Briefly: Dual Mutant (T878A/L702H) Androgen Receptor Degradation Assay (HTRF, MDA-PCa-2b cells). To be noted: 18 h, 18 h incubation, read-out: mean asymptote max. The class given is cell-based. The procedure: Degradation of Androgen Receptor dual T878A/L702H mutant protein in human MDA-PCa-2b (ATCC) cells treated with PROTACs was quantified using the HTRF Human Androgen Receptor Detection Kit (PerkinElmer) in 384 well assay plate format. 10 mM DMSO (Sigma-Aldrich) stock solutions of PROTACs were prepared and diluted across an 11 concentration, 3-fold increment range, and 25 nL dispensed into a white opaque bottomed 384 well assay plate (Thermofisher) using an acoustic ECHO dispenser (Labcyte). Cells were cultured in growth medium (BRFF—HPC-1 (Athena ES) supplemented with 20% FBS (Gibco), penicillin 50U/mL and streptomycin 50 μg/mL (Gibco, #15140-122)) in collagen I or poly-D-lysine coated T175 flasks (Corning, #356487 or #356539, respectively). For the assay, cells were harvested from the flask, centrifuged at 200 g for 5 min and then resuspended in the growth medium. 25 μl of cell suspension containing 10,000 cells was dispensed into each well of the assay plate containing the test compounds, which was then incubated for 18 h at 37° C./5% CO2. Control wells were included on each assay plate, with assay medium without cells being the no AR remaining 100% effect control, and cells treated with DMSO vehicle only, without PROTAC, the 0% effect control. After 18 h incubation 8 μl of supplemented lysis buffer from HTRF kit was added to each well and the plate shaken at 500 rpm for 1 h at room temperature. 8 μl of antibody mix in Detection buffer from HTRF kit was added to each well and the plate was incubated for 2 h in dark at mom temperature. The fluorescence was measured at both 620 nm and 665 nm using an excitation wavelength of 337 nm with a PHERAstar microplate reader (BMG Labtech) and the % AR protein remaining in each well was calculated by normalising the HTRF ratio (665 nm signal/620 nm signal) value to the control wells mentioned above. Parameters corresponding to the potency and efficacy estimates of the PROTACs were obtained from these normalised values using curve fitting software (IDBS ActivityBase). These included the DC50 and the Dmax estimates. Two versions of the DC50, called relative DC50 and absolute DC50, were typically generated. These are the inflection point of a fitted 4 parameter sigmoidal response curve and the interpolated concentration of PROTAC corresponding to 50% of the protein being degraded, respectively. The Dmax parameter was the maximum experimentally observed degradation and the asymptote max parameter the fitted response curve asymptote maximum.
In general terms: TR-FRET usually uses a lanthanide donor and a delayed reading to cut background.

Residue numbers refer to the chain shown, from its start.

Regarding `COc1cc(O[C@H]2C(C)(C)[C@H](NC(=O)c3ccc(N4CCC(CN5CCC(n6ncc7c(N8CCC(=O)NC8=O)ccnc76)CC5)CC4)c(F)c3)C2(C)C)ccc1C#N` [Example 19, N-((1r,3r)-3-(4-Cyano-3-methoxyphenoxy)-2,2,4,4-tetramethylcyclobutyl)-4-(4-((4-(4-(2,4-dioxotetrahydropyrimidin-1(2H)-yl)-1H-pyrazolo[3,4-b]pyridin-1-yl)piperidin-1-yl)methyl)piperidin-1-yl)-3-fluorobenzamide], the Dmax in assay [1] was ≥ 50%. As to `COc1cc(O[C@H]2C(C)(C)[C@H](NC(=O)c3ccc(N4CCC(CN5CCC(n6ncc7c(N8CCC(=O)NC8=O)c(F)ccc76)CC5)CC4)c(F)c3)C2(C)C)ccc1C#N` [Example 25, N-((1r,3r)-3-(4-Cyano-3-methoxyphenoxy)-2,2,4,4-tetramethylcyclobutyl)-4-(4-((4-(4-(2,4-dioxotetrahydropyrimidin-1(2H)-yl)-5-fluoro-1H-indazol-1-yl)piperidin-1-yl)methyl)piperidin-1-yl)-3-fluorobenzamide], the Dmax in assay [2] was ≥ 50%. On the same count and under the same terms, the same measure for `COc1cc(O[C@H]2C(C)(C)[C@H](NC(=O)c3ccc(N4CCC(CN5CC[C@H](n6ncc7c(N8CCC(=O)NC8=O)cccc76)[C@H](F)C5)CC4)c(F)c3)C2(C)C)ccc1C#N` [Example 26, N-((1r,3r)-3-(4-Cyano-3-methoxyphenoxy)-2,2,4,4-tetramethylcyclobutyl)-4-(4-(((3R,4S)-4-(4-(2,4-dioxotetrahydropyrimidin-1(2H)-yl)-1H-indazol-1-yl)-3-fluoropiperidin-1-yl)methyl)piperidin-1-yl)-3-fluorobenzamide]: ≥ 50%; for `CC1(C)[C@H](NC(=O)c2ccc(N3CCC(CN4CCC(n5ncc6c(N7CCC(=O)NC7=O)cccc65)CC4)CC3)cc2)C(C)(C)[C@H]1Oc1ccc(C#N)c2ncccc12` [Example 29, N-((1r,3r)-3-((8-Cyanoquinolin-5-yl)oxy)-2,2,4,4-tetramethylcyclobutyl)-4-(4-((4-(4-(2,4-dioxotetrahydropyrimidin-1(2H)-yl)-1H-indazol-1-yl)piperidin-1-yl)methyl)piperidin-1-yl)benzamide]: ≥ 50%. Still for that read-out and setting: the same measure for `CC1(C)[C@H](NC(=O)c2cc(F)c(N3CCC(CN4CCC(n5ncc6c(N7CCC(=O)NC7=O)cccc65)CC4)CC3)cc2F)C(C)(C)[C@H]1Oc1ccc(C#N)c2ncccc12` [Example 35, N-((1r,3r)-3-((8-Cyanoquinolin-5-yl)oxy)-2,2,4,4-tetramethylcyclobutyl)-4-(4-((4-(4-(2,4-dioxotetrahydropyrimidin-1(2H)-yl)-1H-indazol-1-yl)piperidin-1-yl)methyl)piperidin-1-yl)-2,5-difluorobenzamide]: ≥ 50%.
